Data as given in patent US20220218714A1, “METHOD OF TREATING CANCER” (Epizyme, Inc., priority 2013, published 2022).

Legend:
[1] = test system: H3K27me3 in HS-SY-II xenograft; assay: PD alterations in HS-SY-II xenograft model (tumor H3K27me3 ELISA, 7 days); format: in vivo, mice; conditions: for Mean 2 (H3K27me3 level in tumor, fold change to vehicle): vehicle mean = 1; for Mean Diff. (vehicle vs. treated, tumor H3K27me3): Dunnett's multiple comparisons test; for Significant? (vehicle vs. treated, tumor H3K27me3): Dunnett's test, alpha 0.05
Description: HS-SY-II cells were harvested during mid-log phase growth, and resuspended in Hank balanced salt solution with 50% Matrigel (BD Biosciences). Balb/C-nu mice (Charles River Laboratories Japan) received 1×10^7 cells (0.1 mL cell suspension) subcutaneously in the right flank. Mice carrying tumors of approximately 200 mm^3 (31 days after injection) were sorted into treatment groups with similar mean tumor volumes. Compound A or vehicle (0.5% MC+0.1% Tween-80 in water) was administered at the indicated doses on twice a day for 7 days by oral gavage. Each dose was delivered in a volume of 0.2 mL/20 g mouse (10 mL/kg), and adjusted for the last recorded weight of individual animals. Peripheral blood samples were collected at approximately 5 minutes before and 3 hours after the last dose from Compound A-treated mice. After obtaining plasma samples by centrifugation, the analysis for plasma concentrations of Compound A was conducted by the liquid chromatography-tandem mass spectrometry (LC/MS/MS) method. The UPLC system (Acquity, Waters) equipped with a mass spectrometer (Quattro premier, MICROMASS) was used for quantification of Compound A. The concentrations are plotted (n=5) in FIG. 7A. Each bar represents a mean of plasma concentration in each group.
For FIG. 10D, tumors were snap-frozen in liquid nitrogen. Frozen tumor samples were cut into a 20 mg pieces and placed in 500 μL of ice cold nuclear extraction buffer (10 mM Tris-HCl, 10 mM MgCl2, 25 mM KCl, 1% Triton X-100, 8.6% Sucrose, plus lx Halt Protease inhibitor cocktail (1861281, Thermo Scientific)) and homogenized with a handy micro homogenizer. Nuclei were collected by centrifugation at 600 g for 5 minutes at 4° C. and washed once with ice cold PBS. Supernatant was removed and histones extracted for one hour with 100 μL, of 0.4 N cold sulfuric acid. Extracts were clarified by centrifugation at 10,000 g for 10 minutes at 4° C. and transferred to a fresh microcentrifuge tube containing 1 mL of ice cold acetone. Histones were precipitated at -20° C. for overnight, pelleted by centrifugation at 10,000 g for 10 minutes and resuspended in 100 p1 of water. Histones were quantified using the BCA protein assay (23225, Pierce). The diluted histones were coated on Immulon 4HBX plates (3855, Thermo Scientific) overnight and ELISA was performed. Briefly, after blocking with PBS containing 0.05% Tween 20 and 2% bovine serum albumin (BSA), the plates were incubated with H3K27me3 antibody (#9733, Cell Signaling Technology) or total histone H3 antibody (AB1791, Abcam). The plates were further incubated with horseradish peroxidase conjugated anti-rabbit IgG (#7074, Cell Signaling Technology), followed by incubated with TMB substrate (TMBS-0100-01, BioFx Laboratories). Subsequently, the developed colors in the wells were measured using a plate spectrophotometer (SpectraMax 250, Molecular Devices) at 450 nm (reference wavelength 650 nm). The H3K27me3 levels were adjusted to total histone H3, and expressed as fold changes to vehicle control. The values are plotted (n=6) in FIG. 10D. Each bar represents a mean of the values in each group. […] Histones were extracted and quantified, and the levels of H3K27me3 were analyzed as described above. Trimethylation levels of H3K27 in the tumor are plotted (n=5) in FIG. 7B. Each bar represents a mean ±SEM of the trimethylation level in each group.

[2] = test system: HS-SY-II cells; assay: Gene expression changes in vitro (RT-PCR, normalized to GAPDH); format: cell-based, human; conditions: HS-SY-II in vitro culture
Description: ATF3, EGR1, CDKN2A and GAPDH expression were analyzed by using the TaqMan Gene Expression Assays (Life technologies, 4331182) and the TaqMan Probes (Hs00231069_ml, Hs00152928_ml, Hs00233365_ml, and Hs99999905_ml, respectively).

[3] = test system: HS-SY-II xenograft; assay: Gene expression changes in vivo in HS-SY-II xenograft model (RT-PCR); design: species or system mice; conditions: 500 mg/kg oral twice daily for 7 days; 3 hours after last dose
Description: (§1) Tumor samples were collected at approximately 3 hours after the last dose from mice used in analysis for PK values and PD alterations. The tumor samples were stored using RNAlater (AM7020, Life technologies). Total RNA isolation and the reverse transcription were performed by RNeasy Mini Kit (74104, Qiagen) and High capacity cDNA Reverse Transcription kit (4368814, Life technologies) according to the manufacturer's instruction. The cDNA samples were used for real time-PCR as described above.
as §1, with “above. […] Additionally or alternatively, total RNAs were isolated from frozen tumor samples. The TruSeq' RNA Sample Prep Kit (Illumina) was used to build cDNA library for paired-end sequencing on the Illumina HiSeq (details described in Illumina TruSeq RNA Sample Preparation Guide). […] Paired-end reads from ˜50M clusters per sample were generated using TruSeq SBS kit on the Illumina HiSeq.” for “above.”

[4] = test system: SW982 cells; conditions: SW982 in vitro culture
[5] = tumor H3K27me3 across dose groups (FIG. 7B)

SMILES: CCN(c1cc(-c2ccc(CN3CCOCC3)cc2)cc(C(=O)NCc2c(C)cc(C)[nH]c2=O)c1C)C1CCOCC1 [Compound A]
- Mean 2 (H3K27me3 level in tumor, fold change to vehicle) ([1]; 125 mg/kg oral twice daily 7 days): 0.7
- Mean Diff. (vehicle vs. treated, tumor H3K27me3) ([1]; 125 mg/kg): 0.3
- Significant? (vehicle vs. treated, tumor H3K27me3) ([1]; 125 mg/kg): Yes
- Mean 2 (H3K27me3 level in tumor, fold change to vehicle) ([1]; 250 mg/kg oral twice daily 7 days): 0.55
- Mean Diff. (vehicle vs. treated, tumor H3K27me3) ([1]; 250 mg/kg): 0.45
- Significant? (vehicle vs. treated, tumor H3K27me3) ([1]; 250 mg/kg): Yes
- Mean 2 (H3K27me3 level in tumor, fold change to vehicle) ([1]; 500 mg/kg oral twice daily 7 days): 0.304
- Mean Diff. (vehicle vs. treated, tumor H3K27me3) ([1]; 500 mg/kg, listed as E7435): 0.696
- Mean Diff. (vehicle vs. treated, tumor H3K27me3) ([1]; 500 mg/kg, listed as E7438): 0.896
- Significant? (vehicle vs. treated, tumor H3K27me3) ([1]; 500 mg/kg): Yes
- H3K27me3 levels in tumor tissues ([1]; oral twice daily for 7 days): dose dependent decrease
- Is linear trend significant (P <0.05)? [1, 5]: Yes
- Post test for linear trend: R squared [1, 5]: 0.9104
- Post test for linear trend: Slope [1, 5]: −0.1119
- ATF3 and EGR1 expression [2]: upregulated
- CDKN2A expression [2]: Dose- and time-dependent CDKN2A upregulation
- CDKN2A expression in tumor [3]: significantly upregulated
- ATF3 and EGR1 expression [4]: not in SW982
